Experimental data from PubChem BioAssay AID2060485 (Molecular Pharmacology Branch, DTP, NCI, 2025).
“And” between values parts separate entries of the source, which are not always exact repeats. Equal values may be shown once.

System: A375 multi-cell spheroids with HUVEC/MSC, viability
Test: Anticancer human tumor A375 cell line growth inhibition [GQUAD];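 note: spheroids exposed to compounds for seven days before readout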
Settings: for viability, T/C: stronger effect = lower value
Source text: DNA G-quadruplex Stabilizer Agents in Combinations in Complex Spheroids
A high-throughput screen of multi-cell type tumor spheroids was designed to identify active combinations of DNA G-quadruplex stabilizer agents and targeted small molecules. Complex spheroids include a stromal component modeled by human endothelial cells (HUVEC) and fibroblasts modeled by human mesenchymal stem cells (MSCs). The concentration ranges selected for each drug and investigational agent were based upon clinically achievable concentrations if the clinical Cmax of the agent was known.
Compounds. The drugs and investigational agents: pidnarulex (CX-5461; NSC782164), APTO-253 (NSC789042), BRACO-19 (NSC847499), peposertib (NSC802822), ceralasertib (NSC780249), elimusertib (NSC800525), camonsertib (NSC841442), AZD-1390 (NSC803789), olaparib (NSC753686), talazoparib (NSC767125), ART-558 (NSC835418), sotorasib (NSC818433), MRTX-1133 (NSC836407), SN-38 (NSC673596), topotecan (NSC609699), etoposide (NSC141540), doxorubicin (NSC123127), gemcitabine (NSC613327), 5-fluorouracil (NSC19893), paclitaxel (NSC125973), vemurafenib (NSC761431), panobinostat (NSC761190), R-306465 (JNJ-16241199; NSC773264), adavosertib (NSC754352), TP-3654 (NSC805149), carboplatin (NSC241240), KSQ-4279 (NSC840948), and staurosporine (NSC755774) were obtained from the National Cancer Institute (NCI) Developmental Therapeutics Program Chemical Repository (34). The FDA-approved anticancer drug set is available from the NCI Developmental Therapeutics Program. […] The stock solutions were prepared in dimethyl sulfoxide (DMSO, Sigma-Aldrich, St. Louis, MO, cat. D2650) at 800-fold the tested concentration and stored at -70 degrees C prior to their use. All drugs and investigational agents were tested over a range starting from a high concentration at or near the clinical Cmax and decreasing in half-log increments. If the clinical Cmax for an agent had not been determined, the highest concentration tested was 10 microM.
2.3 Cell Culture. All cells were maintained in an incubator at 37 degrees C and 5% CO2 with 95% humidity. The PDC lines were cultured according to standard operating procedures established by the NCI PDMR. All PDCs were thawed and cultured in Matrigel-coated flasks prepared with a working solution of 1X Ham's F-12 nutrient mix, without supplementation (Invitrogen, cat. 11765054), 100 U/mL penicillin-streptomycin (Invitrogen, cat. 15140122), and 2.5% Matrigel (Corning Inc., cat. 354248) for the first three passages. The 857933-349-R-J2-PDC line was cultured in 6C/Colon 1B media, which includes advanced DMEM/F-12 (Thermo Fisher Scientific, cat. 12634028), 10 mM HEPES (Thermo Fisher Scientific, cat. 15630080), 1X GlutaMAX supplement (Thermo Fisher Scientific, cat. 35050061), 0.1 mg/mL primocin (InvivoGen, cat. ant-pm-2), 10% defined fetal bovine serum, heat inactivated (HyClone Laboratories Inc., cat. SH30070.03HI), 50% L-WRN conditioned media (ATCC, cat. CRL-3276), 1.25 mM N-Acetyl-L-cysteine (Sigma-Aldrich, cat. A9165), 10 mM nicotinamide (Sigma-Aldrich, cat. N0636), 1X B-27 supplement (Thermo Fisher Scientific, cat. 17504044), 1X N-2 supplement (Thermo Fisher Scientific, cat. 17502048), 10 microM Y-27632 dihydrochloride (Tocris Bioscience, cat. 1254), and 50 ng/mL human EGF recombinant protein (Thermo Fisher Scientific, cat. PHG0311). The 485176-168-R4-J1-PDC line was cultured in Panc media, which includes all 6C/Colon 1B media components plus 100 ng/mL human FGF-10 (Thermo Fisher Scientific, cat. 100-26), 500 nM SB-431542 (Selleckchem, cat. S1067), and gastrin (Tocris, cat. 3006).
[…]

In the case of CC1COCCN1c1cc(-c2ccnn2C)c2ccnc(-c3ccn[nH]3)c2n1 (centres undefined), the viability, T/C (compound 0.0316 µM) is reported as 106% and 103% and 105%, the viability, T/C (compound 0.1 µM) is reported as 87.6% and 77% and 93.2% and the viability, T/C (compound 0.316 µM) is reported as 75.4% and 49.7% and 69.2%. The viability, T/C (compound 1 µM) was 38.9% and 25% and 31.8%, the viability, T/C (compound 3.16 µM) was 13.2% and 9.89% and 11.6% and the viability, T/C (compound 10 µM) was 11.8% and 10.5% and 11.2%. For the same molecule, the IC50 (curve of compound) was 0.677 µM and 0.294 µM and 0.561 µM.
In the case of CC1COCCN1c1cc(C2(O)CC3CCC(C2)O3)c2cnn(-c3ccn[nH]3)c2n1 (centres undefined), the viability, T/C (compound 0.0316 µM) is reported as 117% and 107% and 101%, the viability, T/C (compound 0.1 µM) is reported as 73.7% and 86.2% and 65.1% and the viability, T/C (compound 0.316 µM) is reported as 47.9% and 53.4% and 35.1%. For the same molecule, the viability, T/C (compound 1 µM) was 19.1% and 20.1% and 14.9%, the viability, T/C (compound 3.16 µM) was 12.1% and 10.6% and 9.5% and the viability, T/C (compound 10 µM) was 8.52% and 8.96% and 7.33%. The IC50 (curve of compound) was 0.25 µM and 0.334 µM and 0.176 µM.
In the case of CC1COCCN1c1cc(C2(S(C)(=N)=O)CC2)nc(-c2ccnc3[nH]ccc23)n1 (centres undefined), the viability, T/C (compound 0.0316 µM) is reported as 103% and 102%, the viability, T/C (compound 0.1 µM) is reported as 97.6% and 102% and the viability, T/C (compound 0.316 µM) is reported as 104% and 98.5%. The viability, T/C (compound 1 µM) was 109% and 103%, the viability, T/C (compound 3.16 µM) was 54.7% and 63.4% and the viability, T/C (compound 10 µM) was 42.4% and 36.1%. The IC50 (curve of compound) was 4.9 µM and 5.56 µM.
CCCS(=O)(=O)Nc1ccc(F)c(C(=O)c2c[nH]c3ncc(-c4ccc(Cl)cc4)cc23)c1F was tested, and the viability, T/C (compound 0.0316 µM) was 41.8% and 44% and 40.9%, the viability, T/C (compound 0.1 µM) was 16.1% and 14.9% and 17.2% and the viability, T/C (compound 0.316 µM) was 8.83% and 9.93% and 11.1%. For the same molecule, the viability, T/C (compound 1 µM) was 6.9% and 7.11% and 7.65%, the viability, T/C (compound 3.16 µM) was 5.54% and 6.38% and 6.53% and the viability, T/C (compound 10 µM) was 5.63% and 5.69% and 7.54%. The IC50 (curve of compound) was under 0.0316 µM.
In the case of CC[C@@]1(O)C(=O)OCc2c1cc1n(c2=O)Cc2cc3c(CN(C)C)c(O)ccc3nc2-1, the viability, T/C (compound 0.000999 µM) is reported as 104% and 102% and 101%, the viability, T/C (compound 0.00316 µM) is reported as 105% (2×) and 93.9% and the viability, T/C (compound 0.00999 µM) is reported as 108% and 96.2% and 102%. The viability, T/C (compound 0.0316 µM) was 80.7% and 57% and 63%, the viability, T/C (compound 0.0999 µM) was 24.7% and 19.6% and 22% and the viability, T/C (compound 0.316 µM) was 14.6% and 9.66% and 10.5%. The IC50 (curve of compound) was 0.0593 µM and 0.0395 µM and 0.0458 µM.
For CCc1c2c(nc3ccc(O)cc13)-c1cc3c(c(=O)n1C2)COC(=O)[C@]3(O)CC, the viability, T/C (compound 0.000999 µM) was 45.1% and 41.4% and 38.3%, the viability, T/C (compound 0.00316 µM) was 17.9% and 15.3% and 17.3% and the viability, T/C (compound 0.00999 µM) was 15.6% and 10.1% and 12.2%. The viability, T/C (compound 0.0316 µM) was 18% and 14.4% and 15%, the viability, T/C (compound 0.0999 µM) was 4.97% and 4.55% and 5.97% and the viability, T/C (compound 0.316 µM) was 0.56% and 1.25% and 0.77%. For the same molecule, the IC50 (curve of compound) was under 0.000999 µM.
For CN(C)c1ccc(Nc2c3ccc(NC(=O)CCN4CCCC4)cc3nc3cc(NC(=O)CCN4CCCC4)ccc23)cc1, the viability, T/C (compound 0.0316 µM) was 98.8% [middle of 12 runs], the viability, T/C (compound 0.1 µM) was 103% [middle of 12 runs] and the viability, T/C (compound 0.316 µM) was 104% [middle of 12 runs]. For the same molecule, the viability, T/C (compound 1 µM) was 101% [middle of 12 runs], the viability, T/C (compound 3.16 µM) was 106% [middle of 12 runs] and the viability, T/C (compound 10 µM) was 102% [middle of 12 runs]. It also gave an IC50 (compound alone, run of 03/26/2024) of over 10 µM.
